The results in this text go back to US6410585B1, “Inhibitors of protein tyrosine phosphatase” (priority 1997, dated 2002).

One experiment addresses T1, human PTP1B (Homo sapiens, UniProt P18031).
T1 construct: human PTP1B (amino acid residues 1-321); made in house; host or cells: E. coli BL21(DE3)
T1 sequence (P18031 1-321): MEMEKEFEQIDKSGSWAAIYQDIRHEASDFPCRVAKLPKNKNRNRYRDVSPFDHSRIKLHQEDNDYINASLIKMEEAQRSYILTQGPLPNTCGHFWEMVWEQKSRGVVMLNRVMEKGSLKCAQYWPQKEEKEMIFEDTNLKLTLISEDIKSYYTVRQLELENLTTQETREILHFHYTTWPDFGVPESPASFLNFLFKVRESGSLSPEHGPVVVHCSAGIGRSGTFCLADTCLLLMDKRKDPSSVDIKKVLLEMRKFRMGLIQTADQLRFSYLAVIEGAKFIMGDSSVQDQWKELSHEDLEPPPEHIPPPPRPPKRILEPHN
The experiment can be described thus: PTP1B assay, pNPP hydrolysis, assayed exactly as for PTP1. The experiment is classed as biochemical. The conditions noted are these: for PTP1B Inhib PTP1B. % Inhib: Table 2; for inhibition at 1 µM / inhibition at 10 µM / inhibition at 100 µM: Table 2, read-out: PTP1B Inhib PTP1B. % Inhib. The source says:
The equivalent construct of human PTP1B (amino acid residues 1-321) (cloned from a human placental library), without the GST tag and thrombin cleavage site, was inserted into a pMB replicon and transformed into E. coli BL21(DE3), a strain containing a chromosomal copy of the gene for T7 RNA polymerase under control of a lacUV5 promoter. Expression of PTP1B was induced with isopropyl thiogalactose and the soluble protein was purified by ion exchange, hydrophobic interaction and gel exclusion chromatography for use in the assay to identify PTP inhibitors.
PTP1 activity is measured using either p-nitrophenol phosphate (pNPP) or a triphosphopeptide (that matches residues 1142 through 1153 of the β-subunit and the insulin receptor) as substrate in a 96-well microtiter plate format. An assay pH of 7.2 is used for standard assays (measured 405=9800 at pH 7.2).
Human PTP1B, which is highly homologous to rat PTP1, was assayed exactly as described above for PTP1.
Standard assays are conducted at room temperature in a total volume of 0.2 ml that contains Hepes buffer (50 mM, pH 7.2), NaCl (50 mM), EDTA (1 mM), DTT (1 mM), bovine serum albumin (1 mg/ml), pNPP (1 mM) and PTP1 (35 ng/ml). Compounds (2 μl of 10 mM solutions) are pipetted into wells of microtiter plates followed by 198 μl of premixed reaction mix (with PTP1 and pNPP added immediately before use). The rate of change in A405 is recorded for 60 min. Two wells on each plate contain DMSO controls and two wells contain sodium orthovanadate (1 mM) which inhibits PTP1-catalyzed hydrolysis of pNPP completely. Data are expressed as percent inhibition relative to the average of the DMSO controls measured on the same microtiter plate.

For another experiment, the target named is T2, rat PTP1 (Rattus norvegicus, UniProt P20417).
T2 construct: a C-terminal truncation of rat PTP1 (amino acid residues 1-322); GST (N, cleaved yes); made in house; host or cells: E. coli strain TG-1 (pGEX-2T)
T2 sequence (P20417 1-322): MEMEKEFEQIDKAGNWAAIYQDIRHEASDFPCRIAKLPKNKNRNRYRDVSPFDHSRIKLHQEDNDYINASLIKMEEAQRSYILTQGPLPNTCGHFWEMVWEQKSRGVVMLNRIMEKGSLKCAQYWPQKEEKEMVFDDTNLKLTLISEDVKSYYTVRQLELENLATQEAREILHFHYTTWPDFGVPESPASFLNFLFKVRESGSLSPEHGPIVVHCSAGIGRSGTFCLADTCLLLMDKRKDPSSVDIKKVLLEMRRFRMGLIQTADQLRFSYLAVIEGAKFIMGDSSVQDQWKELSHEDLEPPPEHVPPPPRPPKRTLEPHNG
The experiment can be described thus: PTP1 assay, pNPP hydrolysis (rate of change in A405). The experiment is classed as biochemical. Conditions: pNPP hydrolysis, Table 2, read-out: PTP1 Inhib PTP1N. % Inhib; for inhibition at 1 µM: Conc 1 uM; for inhibition at 10 µM: Conc 10 uM; for inhibition at 100 µM: Conc 100 uM. In outline: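 Thrombin-cleaved rat PTP1 residues 1-322 (35 ng/ml) with 1 mM pNPP in 50 mM Hepes pH 7.2, NaCl, EDTA, DTT, BSA at room temperature. A405 rate followed 60 min. Compounds added as 10 mM solutions; percent inhibition relative to plate DMSO controls, 1 mM orthovanadate as full-inhibition control.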

“And” between values parts separate entries of the source, which are not always exact repeats. Equal entries are not always repeated.

`CCCCCNC(=O)C(Cc1ccc(OCCOO)c(COO)c1)NC(=O)C(Cc1ccccc1)NC(=O)OC(C)(C)C` (centres unmarked) [drawing 162]: on human PTP1B (Conc 10 uM), the “PTP1B Inhib PTP1B. % Inhib” value was 78% and 54% and 43%. In addition, on human PTP1B (Conc 100 uM), the “PTP1B Inhib PTP1B. % Inhib” value is 97% and 89% and 87%. On rat PTP1, the inhibition at 1 µM is 40%, the inhibition at 10 µM is 84% and the inhibition at 100 µM came out at 97%.
As for `CCCCCNC(=O)C(Cc1ccc(OC(COO)COO)cc1)NC(=O)C(Cc1ccc(C(=O)c2ccccc2)cc1)NC(=O)OC(C)(C)C` (centres unmarked), the inhibition at 1 µM on human PTP1B (Conc 1 uM) amounted to 9%; on rat PTP1 it was 10%. In addition, the figures for the inhibition at 10 µM on human PTP1B (Conc 10 uM) and on rat PTP1 were 42% and 44%, respectively. Besides, the inhibition at 100 µM on human PTP1B (Conc 100 uM) came to 90%; on rat PTP1 it was 91%.
Turning to `CCCCCNC(=O)[C@H](Cc1ccc(OCC(=O)O)c(C(=O)O)c1)NC(=O)C(Cc1ccccc1)NC(=O)CSc1nnc[nH]1` (some centres unmarked), the inhibition at 1 µM at human PTP1B (Conc 1 uM) was determined as 36%. Further, the inhibition at 10 µM on human PTP1B (Conc 10 uM) worked out at 82%. Besides, at human PTP1B (Conc 100 uM), the inhibition at 100 µM is 96%.
The like results for `CCCCCNC(=O)C(Cc1ccc(OCCOO)c(COO)c1)NC(=O)C(Cc1ccccc1)NC(=O)CCNS(C)(=O)=O` (centres unmarked) were, in that order, 15%, 73% and 95%.
The corresponding values for `CCCCCNC(=O)C(Cc1ccc(OCCOO)c(COO)c1)NC(=O)C(Cc1ccccc1)NC(=O)CCCO` (centres unmarked) are 23%, 78% and 96%.
The like results for `CCCCCNC(=O)[C@H](Cc1ccc(OCC(=O)O)c(C(=O)O)c1)NC(=O)C(Cc1ccccc1)N1CCCC1=O` (some centres unmarked) were, in that order, 24%, 71% and 94%.
Take `CCCCCNC(=O)C(Cc1ccc(OC(COO)COO)cc1)NC(=O)C(CSCc1ccccc1)NC(=O)OC(C)(C)C` (centres unmarked): on human PTP1B (Conc 1 uM), the “PTP1B Inhib PTP1B. % Inhib” value worked out at 3% and the inhibition at 1 µM was found to be 2%. Besides, on human PTP1B (Conc 10 uM), the “PTP1B Inhib PTP1B. % Inhib” value was found to be 16% and the inhibition at 10 µM amounted to 14%. Besides, on human PTP1B (Conc 100 uM), the “PTP1B Inhib PTP1B. % Inhib” value is reported as 83% and the inhibition at 100 µM turned out to be 75%.
As for `CCCCCNC(=O)C(Cc1ccc(OCCOO)c(COO)c1)NC(=O)C(Cc1ccc(O)cc1)NC(=O)OC(C)(C)C` (centres unmarked), at human PTP1B (Conc 1 uM), the “PTP1B Inhib PTP1B. % Inhib” value was 28% and the inhibition at 1 µM came to 32%. At human PTP1B (Conc 10 uM), the “PTP1B Inhib PTP1B. % Inhib” value worked out at 78% and the inhibition at 10 µM worked out at 81%. On human PTP1B (Conc 100 uM), the “PTP1B Inhib PTP1B. % Inhib” value is 96% and the inhibition at 100 µM stood at 97%.
As for `CCCCCNC(=O)C(Cc1ccc(OCCOO)c(COO)c1)NC(=O)C(C)NC(=O)OC(C)(C)C` (centres unmarked), the inhibition at 1 µM on human PTP1B (Conc 1 uM) stood at 8%. Also, the inhibition at 10 µM at human PTP1B (Conc 10 uM) amounted to 43%. The inhibition at 100 µM at human PTP1B (Conc 100 uM) amounted to 86%.
The like results for `CCCCCNC(=O)[C@H](Cc1ccc(OC(C(=O)O)C(=O)O)cc1)NC(=O)C(Cc1ccccc1)NC(=O)OC(C)(C)C` (some centres unmarked) were, in that order, 2%, 8% and 44%.
The like results for `CCCCCNC(=O)C(Cc1ccc(OCCOO)c(COO)c1)NC(=O)C(Cc1ccccc1)NC(=O)CCNC(=O)OC(C)(C)C` (centres unmarked) were, in that order, 19%, 75% and 96%.
For the compound `CCCCCNC(=O)C(Cc1ccc(OCCOO)c(COO)c1)NC(=O)C(Cc1ccccc1)NC(=O)Cc1cccc(O)c1` (centres unmarked), the inhibition at 1 µM at human PTP1B (Conc 1 uM) was determined as 43%. Moreover, the inhibition at 10 µM at human PTP1B (Conc 10 uM) is 86%. On human PTP1B (Conc 100 uM), the inhibition at 100 µM came out at 98%.
The corresponding values for `CCCCCNC(=O)C(Cc1ccc(OCCOO)c(COO)c1)NC(=O)C(Cc1ccccc1)NC(=O)Cc1ccccc1` (centres unmarked) are 45%, 87% and 98%.
The corresponding values for `CCCCCNC(=O)C(Cc1ccc(OCCOO)c(COO)c1)NC(=O)CCc1ccccc1` (centres unmarked) are 4%, 15% and 60%.
The corresponding values for `CCCCCNC(=O)[C@H](Cc1ccc(OCC(=O)O)c(C(=O)O)c1)NC(=O)C(Cc1ccccc1)NC(=O)Cn1nnnc1S` (some centres unmarked) are 57%, 91% and 98%.
With `CCCCCNC(=O)C(Cc1ccc(OC(COO)COO)cc1)NC(=O)CNC(=O)OCc1ccccc1` (centres unmarked), the inhibition at 1 µM on human PTP1B (Conc 1 uM) was found to be 6%. For the same compound, the inhibition at 10 µM on human PTP1B (Conc 10 uM) worked out at 19%. In addition, at human PTP1B (Conc 100 uM), the inhibition at 100 µM worked out at 66%.
The corresponding values for `CCCCCNC(=O)[C@H](Cc1ccc(OCC(=O)O)c(C(=O)O)c1)NC(=O)C(Cc1ccccc1)NC(=O)CSc1cnn[nH]1` (some centres unmarked) are 49%, 88% and 98%.
The like results for `CCCCCNC(=O)C(Cc1ccc(OCCOO)c(COO)c1)NC(=O)C(Cc1ccccc1)NC(=O)Cc1ccc(OC)cc1` (centres unmarked) were, in that order, 46%, 87% and 97%.
The corresponding values for `CCCCCNC(=O)[C@H](Cc1ccc(OCC(=O)OC)c(C(=O)O)c1)NC(=O)[C@H](Cc1ccccc1)NC(=O)OC(C)(C)C` are 3%, 5% and 25%.
With `CCCCCNC(=O)C(Cc1ccc(OC(COO)COO)cc1)NC(=O)C(Cc1ccccc1)NC(=O)CCOC` (centres unmarked), the inhibition at 1 µM on human PTP1B (Conc 1 uM) is 19%. Further, on human PTP1B (Conc 10 uM), the inhibition at 10 µM was 65%. At human PTP1B (Conc 100 uM), the inhibition at 100 µM came to 94%.
The corresponding values for `CCCCCNC(=O)C(Cc1ccc(OC(COO)COO)cc1)NC(=O)Nc1cccc(C(=O)O)c1` (centres unmarked) are 17%, 63% and 94%.
The like results for `CCCCCNC(=O)C(Cc1ccc(OCCOO)c(COO)c1)NC(=O)N(Cc1ccccc1)Cc1ccccc1` (centres unmarked) were, in that order, 11%, 45% and 87%.
The like results for `CCCCCNC(=O)C(Cc1ccc(OC(COO)COO)cc1)NC(=O)C(COCc1ccccc1)NC(=O)OC(C)(C)C` (centres unmarked) were, in that order, 3%, 19% and 71%.
Take `CCCCCNC(=O)C(Cc1ccc(OCCOO)c(COO)c1)NC(=O)C(Cc1ccccc1)NC(=O)Cc1c[nH]c2ccccc12` (centres unmarked): the inhibition at 1 µM on human PTP1B (Conc 1 uM) is 47%. Further, the inhibition at 10 µM at human PTP1B (Conc 10 uM) is 88%. At human PTP1B (Conc 100 uM), the inhibition at 100 µM is 98%.
As for `CCCCCNC(=O)C(Cc1ccc(OC(COO)COO)cc1)NC(=O)N(Cc1cccc(C(=O)O)c1)Cc1cccc(C(F)(F)F)c1` (centres unmarked), on human PTP1B (Conc 1 uM), the inhibition at 1 µM amounted to 3%. Further, the inhibition at 10 µM at human PTP1B (Conc 10 uM) came to 9%. For the same compound, the inhibition at 100 µM on human PTP1B (Conc 100 uM) came out at 58%.
The like results for `CCCCCNC(=O)C(Cc1ccc(OC(COO)COO)cc1)NC(=O)C(CC[S+](C)[O-])NC(=O)OC(C)(C)C` (centres unmarked) were, in that order, 7%, 21% and 67%.
The corresponding values for `CCCCCNC(=O)[C@H](Cc1ccc(OCC(=O)NO)c(C(=O)O)c1)NC(=O)[C@H](Cc1ccccc1)NC(=O)OC(C)(C)C` are 6%, 8% and 30%.
